From patent US20050197343A1, “Utilization of heteroarene carboxamide as dopamine-d3 ligands for the treatment of cns diseases” (priority 2002, published 2005)
Where two headings read alike, the source gives them in different places.

Tests used:
serotonin receptor 5-HT2 = target: T1, serotonin receptor 5-HT2 (Sus scrofa, UniProt P50129); assay: radio ligand binding, pig cortex membrane preparations, [3H]Ketanserin with 10 μM Prazosin; conditions: p5-HT2; simultaneous incubation with 10 μM of Prazosin
T1 construct: cortex membrane preparations of a pig; from tissue; host or cells: pig cortex
T1 sequence (P50129 whole entry): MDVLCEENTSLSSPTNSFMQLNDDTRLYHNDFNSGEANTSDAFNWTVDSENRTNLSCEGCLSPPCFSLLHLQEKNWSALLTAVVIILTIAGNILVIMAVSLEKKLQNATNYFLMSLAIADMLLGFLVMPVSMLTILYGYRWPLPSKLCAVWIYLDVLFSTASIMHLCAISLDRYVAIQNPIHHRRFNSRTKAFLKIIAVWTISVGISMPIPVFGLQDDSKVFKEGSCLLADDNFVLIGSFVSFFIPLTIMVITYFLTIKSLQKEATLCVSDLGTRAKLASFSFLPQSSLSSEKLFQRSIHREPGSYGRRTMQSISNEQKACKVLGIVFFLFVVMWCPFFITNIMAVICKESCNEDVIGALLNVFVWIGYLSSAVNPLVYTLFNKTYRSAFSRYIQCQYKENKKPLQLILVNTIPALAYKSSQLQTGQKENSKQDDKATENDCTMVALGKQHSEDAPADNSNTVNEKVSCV

[1] = target: adrenergic receptor subtype α1; assay: radio ligand binding, pig cortex membranes, highly affine binding site on labelling with [3H]Ketanserin; conditions: read-out: Ki values α1 (footnote c); pα1; derived from the highly affine binding site on labelling with [3H]Ketanserin
α1 receptors = assay: competitive experiment with the α1 selective radio ligand [3H]Prazosin; conditions: read-out: Ki values α1 (footnote d); pα1; competitive experiment with [3H]Prazosin
[2] = target: T2, serotonin receptor 5-HT1A (Sus scrofa, UniProt A0A4X1UTF5); assay: radio ligand binding, pig cortex membrane preparations, [3H]8-OH-DPAT
T2 sequence (A0A4X1UTF5 1-422): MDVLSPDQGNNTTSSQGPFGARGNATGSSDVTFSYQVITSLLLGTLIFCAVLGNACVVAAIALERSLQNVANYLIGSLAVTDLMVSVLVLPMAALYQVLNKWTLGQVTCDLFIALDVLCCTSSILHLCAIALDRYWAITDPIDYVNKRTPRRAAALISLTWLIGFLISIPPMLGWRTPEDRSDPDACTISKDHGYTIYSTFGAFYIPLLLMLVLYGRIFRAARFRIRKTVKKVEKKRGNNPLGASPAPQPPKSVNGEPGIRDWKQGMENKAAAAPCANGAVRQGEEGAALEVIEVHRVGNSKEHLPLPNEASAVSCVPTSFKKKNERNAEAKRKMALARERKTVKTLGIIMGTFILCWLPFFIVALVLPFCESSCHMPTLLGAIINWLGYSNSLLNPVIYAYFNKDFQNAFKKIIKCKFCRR

D3 receptor = D3 receptor (Homo sapiens, UniProt P35462); assay: radio ligand binding assay, CHO cell membrane homogenates, [3H]Spiperon, D3; parameters: expressed in transfected cells; host or cells: CHO cells (membrane homogenates); conditions: for D3 selectivity D2long/D3 / D3 selectivity D2short/D3 / D3 selectivity D4.4/D3: ratio of Ki values
D3 receptor, sequence (P35462 whole entry): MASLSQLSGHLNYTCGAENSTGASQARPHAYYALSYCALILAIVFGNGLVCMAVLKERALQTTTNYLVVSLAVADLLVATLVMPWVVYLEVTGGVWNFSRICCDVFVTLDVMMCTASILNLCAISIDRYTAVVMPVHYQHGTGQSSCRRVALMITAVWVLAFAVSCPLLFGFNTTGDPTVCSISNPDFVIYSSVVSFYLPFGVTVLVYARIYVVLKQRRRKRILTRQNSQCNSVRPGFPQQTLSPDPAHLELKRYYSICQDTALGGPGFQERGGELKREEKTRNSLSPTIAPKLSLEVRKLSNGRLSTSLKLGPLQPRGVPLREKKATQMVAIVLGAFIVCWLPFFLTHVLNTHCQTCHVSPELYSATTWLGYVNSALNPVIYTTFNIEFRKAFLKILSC
Description: (§1) The biological activities of the compounds of the invention were determined in radio ligand binding assays.

human D2short receptor = target: T3, human D2short receptor (Homo sapiens, UniProt P14416); assay: radio ligand binding assay, CHO cell membrane homogenates, [3H]Spiperon, D2short; conditions: hD2short; average of 2-9 experiments in triplicate
T3 construct: expressed in transfected cells; host or cells: CHO cells (membrane homogenates)
T3 sequence (P14416 1-414 isoform P14416-2): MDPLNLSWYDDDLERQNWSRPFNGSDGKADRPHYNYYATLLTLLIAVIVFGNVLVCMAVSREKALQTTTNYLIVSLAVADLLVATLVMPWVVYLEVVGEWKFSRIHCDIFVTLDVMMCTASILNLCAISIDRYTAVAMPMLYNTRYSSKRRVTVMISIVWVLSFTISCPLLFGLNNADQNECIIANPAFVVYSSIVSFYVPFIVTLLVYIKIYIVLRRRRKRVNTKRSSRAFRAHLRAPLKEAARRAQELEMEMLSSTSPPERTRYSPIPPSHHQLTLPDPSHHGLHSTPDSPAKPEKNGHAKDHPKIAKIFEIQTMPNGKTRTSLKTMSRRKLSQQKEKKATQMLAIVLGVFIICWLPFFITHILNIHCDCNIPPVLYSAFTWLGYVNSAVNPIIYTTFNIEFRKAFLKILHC
Description: as §1

D1 receptor = target: T4, D1 receptor (Sus scrofa, UniProt P50130); assay: radio ligand binding assay, D1 receptor, pig striatum membrane homogenates, [3H]SCH 23390; conditions: pD1; average of 2-9 experiments in triplicate
T4 construct: native membrane homogenates obtained from the striatum of a pig; from tissue; host or cells: pig striatum
T4 sequence (P50130 whole entry): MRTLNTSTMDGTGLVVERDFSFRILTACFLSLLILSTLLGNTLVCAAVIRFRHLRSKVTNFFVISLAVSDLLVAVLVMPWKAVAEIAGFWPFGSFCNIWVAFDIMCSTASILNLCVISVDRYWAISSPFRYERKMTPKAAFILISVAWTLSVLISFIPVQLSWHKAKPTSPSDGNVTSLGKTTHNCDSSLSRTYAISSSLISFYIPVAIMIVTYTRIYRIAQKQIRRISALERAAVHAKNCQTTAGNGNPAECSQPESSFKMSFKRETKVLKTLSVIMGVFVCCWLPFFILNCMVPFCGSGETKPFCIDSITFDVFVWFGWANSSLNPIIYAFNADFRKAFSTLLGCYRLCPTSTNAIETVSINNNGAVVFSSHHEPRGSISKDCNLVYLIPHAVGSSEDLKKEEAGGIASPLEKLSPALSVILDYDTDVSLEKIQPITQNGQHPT
Description: as §1

human D2long receptor = target: T5, human D2long receptor (Homo sapiens, UniProt P14416); assay: radio ligand binding assay, CHO cell membrane homogenates, [3H]Spiperon, D2long; conditions: hD2long; average of 2-9 experiments in triplicate
T5 construct: expressed in transfected cells; host or cells: CHO cells (membrane homogenates)
T5 sequence (P14416 whole entry): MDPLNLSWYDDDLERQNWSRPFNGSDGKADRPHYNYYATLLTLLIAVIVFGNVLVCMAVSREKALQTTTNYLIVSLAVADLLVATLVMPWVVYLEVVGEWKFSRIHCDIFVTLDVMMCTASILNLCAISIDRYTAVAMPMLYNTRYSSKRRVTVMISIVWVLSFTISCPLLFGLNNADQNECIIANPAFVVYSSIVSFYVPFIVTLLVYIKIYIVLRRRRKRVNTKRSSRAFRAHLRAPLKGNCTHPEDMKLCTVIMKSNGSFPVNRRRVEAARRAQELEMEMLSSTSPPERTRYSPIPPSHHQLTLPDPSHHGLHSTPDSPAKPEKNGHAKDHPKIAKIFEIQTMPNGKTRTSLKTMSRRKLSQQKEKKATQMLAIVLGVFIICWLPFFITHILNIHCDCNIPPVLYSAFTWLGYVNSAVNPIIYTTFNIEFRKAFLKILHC
Description: as §1

human D4.4 receptor = target: T6, human D4.4 receptor (Homo sapiens, UniProt P21917); assay: radio ligand binding assay, CHO cell membrane homogenates, [3H]Spiperon, D4.4; conditions: for Ki: hD4.4, average of 2-9 experiments in triplicate
T6 construct: expressed in transfected cells; host or cells: CHO cells (membrane homogenates)
T6 sequence (P21917 1-419): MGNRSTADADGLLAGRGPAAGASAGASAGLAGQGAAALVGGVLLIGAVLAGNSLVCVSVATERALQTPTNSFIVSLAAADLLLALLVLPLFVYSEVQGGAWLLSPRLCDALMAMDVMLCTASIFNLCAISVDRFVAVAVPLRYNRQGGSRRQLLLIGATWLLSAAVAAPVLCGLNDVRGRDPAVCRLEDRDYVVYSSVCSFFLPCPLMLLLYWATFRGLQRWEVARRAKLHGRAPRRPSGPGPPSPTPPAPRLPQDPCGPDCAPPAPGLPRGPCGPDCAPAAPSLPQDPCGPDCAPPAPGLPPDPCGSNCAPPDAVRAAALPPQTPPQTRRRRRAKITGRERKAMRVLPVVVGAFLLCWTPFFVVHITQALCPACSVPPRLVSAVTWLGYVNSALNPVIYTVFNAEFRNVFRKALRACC
Description: as §1

[3] = hD3, average of 2-9 experiments in triplicate, read-out: Ki-values D3
[4] = read-out: Ki values 5-HT1A, p5-HT1A, [3H]8-OH-DPAT, average of 2 to 6 experiments

Compound	Ki (serotonin receptor 5-HT2)	Ki (α1 receptors)	Ki [2]	Ki (D3 receptor; [3])	Ki [2, 4]	also measured
COc1ccccc1N1CCN(CCCCNC(=O)c2cc3cc(C#N)ccc3[nH]2)CC1 [Example 11, N-4-(4-(2-methoxyphenyl)piperazine-1-yl)butyl-5-cyan-2-indolylcarbamide]	440 nM	5.9 nM	83 nM	0.23 to 0.57 nM		Ki [1]: 24 nM
COc1ccccc1N1CCN(CCCCNC(=O)c2cc3cc(Br)ccc3s2)CC1 [Example 22, N-4-(4-(2-methoxyphenyl)piperazine-1-yl)butyl-5-brom-2-benzo[b]thiophenylcarbamide]	760 nM	2.5 nM			180 nM	
COc1ccccc1N1CCN(CCCCNC(=O)c2cc3ccccc3[nH]2)CC1 [Example 24, N-4-(4-(2-methoxyphenyl)piperazine-1-yl)butyl-2-indolylcarbamide]	420 nM	7.3 nM	32 nM			Ki [1]: 11 nM
COc1ccccc1N1CCN(CCCCNC(=O)c2cc3cc(Br)ccc3o2)CC1 [Example 5, N-4-(4-(2-methoxyphenyl)piperazine-1-yl)butyl-5-brom-2-benzo[b]furanylcarbamide]	140 nM	5.3 nM		0.69 nM	68 nM	Ki (human D2short receptor): 61 nM; Ki (D1 receptor): 590 nM; Ki (human D2long receptor): 96 nM; Ki (human D4.4 receptor): 17 nM; D3 selectivity D2long/D3 (D3 receptor): 140; D3 selectivity D2short/D3 (D3 receptor): 88; D3 selectivity D4.4/D3 (D3 receptor): 25
COc1ccccc1N1CCN(CCCCNC(=O)c2cc3cc(C#N)ccc3s2)CC1 [Example 18, N-4-(4-(2-methoxyphenyl)piperazine-1-yl)butyl-5-cyano-2-benzo[b]thiophenylcarbamide]	580 nM	2.9 nM	54 nM			
O=C(NCCCCN1CCN(c2cccc(Cl)c2Cl)CC1)c1cc2cc(Br)ccc2s1 [Example 23, N-4-(4-(2,3-dichlorophenyl)piperazine-1-yl)butyl-5-brom-2-benzo[b]thiophenylcarbamide]	14000 nM	320 nM			430 nM	
N-4-(4-(2-methoxyphenyl)piperazine-1 -yl)butyl-2-ferrocenylcarbamide [Example 16]	500 nM	30 nM			0.6 nM	D4 affinity (in words) (human D4.4 receptor): high D4 affinity
N#Cc1ccc2cc(C(=O)NCCCCN3CCN(c4cccc(Cl)c4Cl)CC3)[nH]c2c1 [Example 15, N-4-(4-(2,3-dichlorophenyl)piperazine-1-yl)butyl-6-cyano-2-indolylcarbamide]	320 nM	2000 nM			390 nM	
COc1ccccc1N1CCN(CCCCNC(=O)c2cc3ccc(C#N)cc3s2)CC1 [Example 20, N-4-(4-(2-methoxyphenyl)piperazine-1-yl)butyl-6-cyano-2-benzo[b]thiophenylcarbamide]	660 nM	8.3 nM	71 nM	0.23 to 0.57 nM		
O=C(NCCCCN1CCN(c2cccc(Cl)c2Cl)CC1)c1cc2ccccc2o1 [Example 4, N-4-(4-(2,3-dichlorophenyl)piperazine-1-yl)butyl-2-benzo[b]furanylcarbamide]		160 nM		1.2 nM		
O=C(NCCCCN1CCN(c2cccc(Cl)c2Cl)CC1)c1cc2cc(Br)ccc2[nH]1 [Example 14, N-4-(4-(2,3-dichlorophenyl)piperazine-1-yl)butyl-5-brom-2-indolylcarbamide]	690 nM	500 nM			1600 nM	
COc1ccccc1N1CCN(CCCCNC(=O)c2cc3cc(Br)ccc3[nH]2)CC1 [Example 12, N-4-(4-(2-methoxyphenyl)piperazine-1-yl)butyl-5-bromo-2-indolylcarbamide]	280 nM	6.4 nM	440 nM	0.23 to 0.57 nM		
O=C(NCCCCN1CCN(c2cccc(Cl)c2Cl)CC1)c1cc2ccccc2[te]1 [Example 9, N-4-(4-(2,3-dichlorophenyl)piperazine-1-yl)butyl-2-benzo[b]tellurophenylcarbamide]	730 nM	100 nM		0.55 nM	130 nM	Ki (human D2short receptor): 48 nM; Ki (D1 receptor): 1400 nM; Ki (human D2long receptor): 91 nM; Ki (human D4.4 receptor): 150 nM; D3 selectivity D2long/D3 (D3 receptor): 170; D3 selectivity D2short/D3 (D3 receptor): 87; D3 selectivity D4.4/D3 (D3 receptor): 270
N#Cc1ccc2[nH]c(C(=O)NCCCCN3CCN(c4cccc(Cl)c4Cl)CC3)cc2c1 [Example 25, N-4-(4-(2,3-dichlorophenyl)piperazine-1-yl)butyl-5-cyano-2-indolylcarbamide]	220 nM	220 nM			190 nM	
N-4-(4-(2, 3-dichlorophenyl)piperazine-1 -yl)butyl-2-ferrocenylcarbamide [Example 17]	250 nM	73 nM		0.47 nM	27 nM	D4 affinity (in words) (human D4.4 receptor): high D4 affinity; Ki (human D4.4 receptor): 0.63 nM
COc1ccccc1N1CCN(CCCCNC(=O)c2cc3ccc(C#N)cc3[nH]2)CC1 [Example 13, N-4-(4-(2-methoxyphenyl)piperazine-1-yl)butyl-6-cyan-2-indolylcarbamide]	220 nM	4.3 nM	47 nM	0.23 to 0.57 nM		
COc1ccccc1N1CCN(CCCCNC(=O)c2cc3ccccc3o2)CC1 [Example 3, N-4-(4-(2-methoxyphenyl)piperazine-1-yl)butyl-2-benzo[b]furanylcarbarnide]		3.3 nM				Ki [1]: 14 nM; Ki (human D4.4 receptor): 30 nM
COc1ccccc1N1CCN(CCCCNC(=O)c2cc3cc(C#N)ccc3o2)CC1 [Example 7, N-4-(4-(2-methoxyphenyl)piperazine-1-yl)butyl-5-cyano-2-benzo[b]furanylcarbamide]	390 nM	11 nM	37 nM	4.2 nM		Ki (human D2short receptor): 89 nM; Ki [1]: 8.2 nM; Ki (human D2long receptor): 130 nM; Ki (human D4.4 receptor): 57 nM
N#Cc1ccc2sc(C(=O)NCCCCN3CCN(c4cccc(Cl)c4Cl)CC3)cc2c1 [Example 19, N-4-(4-(2,3-dichlorophenyl)piperazine-1-yl)butyl-5-cyan-2-benzo[b]thiophenylcarbamide]	280 nM	230 nM			190 nM	
O=C(NCCCCN1CCN(c2cccc(Cl)c2Cl)CC1)c1cc2ccccc2s1 [Example 2, N-4-(4-(2,3-dichlorophenyl)piperazine-1-yl)butyl-2-benzo[b]thiophenylcarbamide]		370 nM				
O=C(NCCCCN1CCN(c2cccc(Cl)c2Cl)CC1)c1cc2ccccc2[nH]1 [Example 10, N-4-(4-(2,3-dichlorophenyl)piperazine-1-yl)butyl-2-indolylcarbamide]		220 nM	610 nM	0.23 to 0.57 nM		D3 affinity (in words) (D3 receptor): subnanomolar affinity
COc1ccccc1N1CCN(CCCCNC(=O)c2cc3ccccc3[te]2)CC1 [Example 8, N-4-(4-(2-methoxyphenyl)piperazine-1-yl)butyl-2-benzo[b]tellurophenylcarbamide]	420 nM	3.5 nM	69 nM			Ki (D3 receptor): 0.72 nM
N#Cc1ccc2cc(C(=O)NCCCCN3CCN(c4cccc(Cl)c4Cl)CC3)sc2c1 [Example 21, N-4-(4-(2,3-dichlorophenyl)piperazine-1-yl)butyl-6-cyano-2-benzo[b]thiophenylcarbamide]	290 nM	45 nM	110 nM	0.23 to 0.57 nM		
